From ChEMBL document CHEMBL3621049, “Imidazole derivatives show anticancer potential by inducing apoptosis and cellular senescence” (2014)
Calls of active or inactive are those of the source.

Assays:
Format in all cases: functional, cell-based
NCI-H322M = assay: Growth inhibition of human NCI-H322M cells at 10 uM by sulforhodamine B assay
HOP-62 = assay: Growth inhibition of human HOP62 cells at 10 uM by sulforhodamine B assay
DU-145 = assay: Growth inhibition of human DU145 cells at 10 uM by sulforhodamine B assay
NCI-H226 = assay: Growth inhibition of human NCI-H226 cells at 10 uM by sulforhodamine B assay
SF-268 = assay: Growth inhibition of human SF268 cells at 10 uM by sulforhodamine B assay
RXF 393 = assay: Growth inhibition of human RXF393 cells at 10 uM by sulforhodamine B assay
MDA-MB-231 = assay: Growth inhibition of human MDA-MB-231 cells at 10 uM by sulforhodamine B assay
MDA-MB-435 = assay: Growth inhibition of human MDA-MB-435 cells at 10 uM by sulforhodamine B assay
OVCAR-5 = assay: Growth inhibition of human OVCAR5 cells at 10 uM by sulforhodamine B assay
SF-539 = assay: Growth inhibition of human SF539 cells at 10 uM by sulforhodamine B assay
NCI-H23 = assay: Growth inhibition of human NCI-H23 cells at 10 uM by sulforhodamine B assay
Hs-578T = assay: Growth inhibition of human Hs 578T cells at 10 uM by sulforhodamine B assay
KM12 = assay: Growth inhibition of human KM12 cells at 10 uM by sulforhodamine B assay
PC-3 = assay: Growth inhibition of human PC3 cells at 10 uM by sulforhodamine B assay
SK-MEL-28 = assay: Growth inhibition of human SK-MEL-28 cells at 10 uM by sulforhodamine B assay
MDA-MB-468 = assay: Growth inhibition of human MDA-MB-468 cells at 10 uM by sulforhodamine B assay
SK-MEL-5 = assay: Growth inhibition of human SK-MEL-5 cells at 10 uM by sulforhodamine B assay
M14 = assay: Growth inhibition of human M14 cells at 10 uM by sulforhodamine B assay
HCT-15 = assay: Growth inhibition of human HCT15 cells at 10 uM by sulforhodamine B assay
LOX IMVI = assay: Growth inhibition of human LOXIMVI cells at 10 uM by sulforhodamine B assay
HT-29 = assay: Growth inhibition of human HT-29 cells at 10 uM by sulforhodamine B assay
HCT-116 = assay: Growth inhibition of human HCT116 cells at 10 uM by sulforhodamine B assay
TK-10 = assay: Growth inhibition of human TK10 cells at 10 uM by sulforhodamine B assay
UACC-257 = assay: Growth inhibition of human UACC257 cells at 10 uM by sulforhodamine B assay
A549 = assay: Growth inhibition of human A549/ATCC cells at 10 uM by sulforhodamine B assay
K562 = assay: Growth inhibition of human K562 cells at 10 uM by sulforhodamine B assay
UO-31 = assay: Growth inhibition of human UO31 cells at 10 uM by sulforhodamine B assay
BT-549 = assay: Growth inhibition of human BT549 cells at 10 uM by sulforhodamine B assay
HCC 2998 = assay: Growth inhibition of human HCC2998 cells at 10 uM by sulforhodamine B assay
OVCAR-3 = assay: Growth inhibition of human OVCAR3 cells at 10 uM by sulforhodamine B assay
ACHN = assay: Growth inhibition of human ACHN cells at 10 uM by sulforhodamine B assay
COLO 205 = assay: Growth inhibition of human COLO205 cells at 10 uM by sulforhodamine B assay
SF-295 = assay: Growth inhibition of human SF295 cells at 10 uM by sulforhodamine B assay
SK-OV-3 = assay: Growth inhibition of human SKOV3 cells at 10 uM by sulforhodamine B assay
A498 = assay: Growth inhibition of human A498 cells at 10 uM by sulforhodamine B assay
UACC-62 = assay: Growth inhibition of human UACC62 cells at 10 uM by sulforhodamine B assay
NCI-H522 = assay: Growth inhibition of human NCI-H522 cells at 10 uM by sulforhodamine B assay
MOLT-4 = assay: Growth inhibition of human MOLT4 cells at 10 uM by sulforhodamine B assay
CCRF-CEM = assay: Growth inhibition of human CCRF-CEM cells at 10 uM by sulforhodamine B assay
U-251 = assay: Growth inhibition of human U251 cells at 10 uM by sulforhodamine B assay
NCI-H460 = assay: Growth inhibition of human NCI-H460 cells at 10 uM by sulforhodamine B assay
T47D = assay: Growth inhibition of human T47D cells at 10 uM by sulforhodamine B assay
SNB-75 = assay: Growth inhibition of human SNB75 cells at 10 uM by sulforhodamine B assay
HOP-92 = assay: Growth inhibition of human HOP92 cells at 10 uM by sulforhodamine B assay
SN12C = assay: Growth inhibition of human SN12C cells at 10 uM by sulforhodamine B assay
786-0 = assay: Growth inhibition of human 786-0 cells at 10 uM by sulforhodamine B assay
SNB-19 = assay: Growth inhibition of human SNB19 cells at 10 uM by sulforhodamine B assay
SK-MEL-2 = assay: Growth inhibition of human SK-MEL-2 cells at 10 uM by sulforhodamine B assay
HL-60(TB) = assay: Growth inhibition of human HL-60(TB) cells at 10 uM by sulforhodamine B assay
RPMI-8226 = assay: Growth inhibition of human RPMI8226 cells at 10 uM by sulforhodamine B assay
SW-620 = assay: Growth inhibition of human SW620 cells at 10 uM by sulforhodamine B assay
Malme-3M = assay: Growth inhibition of human MALME-3M cells at 10 uM by sulforhodamine B assay
MCF7 = assay: Growth inhibition of human MCF7 cells at 10 uM by sulforhodamine B assay
IGROV-1 = assay: Growth inhibition of human IGROV1 cells at 10 uM by sulforhodamine B assay
NCI/ADR-RES = assay: Growth inhibition of human NCI/ADR-RES cells at 10 uM by sulforhodamine B assay
OVCAR-4 = assay: Growth inhibition of human OVCAR4 cells at 10 uM by sulforhodamine B assay
CAKI-1 = assay: Growth inhibition of human Caki1 cells at 10 uM by sulforhodamine B assay
SR = assay: Growth inhibition of human SR cells at 10 uM by sulforhodamine B assay
OVCAR-8 = assay: Growth inhibition of human OVCAR8 cells at 10 uM by sulforhodamine B assay

Measured: growth inhibition (GI)

CCCCCCn1c(-c2ccc(OC)c(OC3CCCC3)c2)nc(-c2ccccc2)c1-c1ccccc1
active: NCI-H322M | HOP-62 | DU-145 | NCI-H226 | SF-268 | RXF 393 | MDA-MB-231 | MDA-MB-435 | OVCAR-5 | SF-539 | NCI-H23 | Hs-578T | KM12 | PC-3 | SK-MEL-28 | MDA-MB-468 | SK-MEL-5 | M14 | HCT-15 | LOX IMVI | HT-29 | HCT-116 | TK-10 | UACC-257 | A549 | K562 | UO-31 | BT-549 | HCC 2998 | OVCAR-3 | ACHN | COLO 205 | SF-295 | SK-OV-3 | A498 | UACC-62 | NCI-H522 | MOLT-4 | CCRF-CEM | U-251 | NCI-H460 | T47D | SNB-75 | HOP-92 | SN12C | 786-0 | SNB-19 | SK-MEL-2 | HL-60(TB) | RPMI-8226 | SW-620 | Malme-3M | MCF7 | IGROV-1 | NCI/ADR-RES | OVCAR-4 | CAKI-1 | SR | OVCAR-8

COc1cc(-c2nc(-c3ccccc3)c(-c3ccccc3)n2C2CCCCC2)ccc1OC1CCCC1
active: NCI-H322M | HOP-62 | DU-145 | NCI-H226 | SF-268 | RXF 393 | MDA-MB-231 | MDA-MB-435 | OVCAR-5 | SF-539 | NCI-H23 | Hs-578T | KM12 | PC-3 | SK-MEL-28 | MDA-MB-468 | SK-MEL-5 | M14 | HCT-15 | LOX IMVI | HT-29 | HCT-116 | TK-10 | UACC-257 | A549 | K562 | UO-31 | BT-549 | HCC 2998 | OVCAR-3 | ACHN | COLO 205 | SF-295 | SK-OV-3 | A498 | UACC-62 | NCI-H522 | MOLT-4 | CCRF-CEM | U-251 | NCI-H460 | T47D | SNB-75 | HOP-92 | SN12C | 786-0 | SNB-19 | SK-MEL-2 | HL-60(TB) | RPMI-8226 | SW-620 | Malme-3M | MCF7 | IGROV-1 | NCI/ADR-RES | OVCAR-4 | CAKI-1 | SR | OVCAR-8
